ChEMBL document CHEMBL1136238, “Synthesis and PDF inhibitory activities of novel benzothiazolylidenehydroxamic acid derivatives” (Bioorg Med Chem Lett, 2003)
In brackets after ≈: the same amount, converted by molar mass.

Key:
[1] = test system: Escherichia coli; assay: In vitro minimum inhibitory concentration required against Escherichia coli ATCC 25922; format: functional
[2] = test system: Pseudomonas aeruginosa; assay: In vitro minimum inhibitory concentration required against Pseudomonas aeruginosa ATCC 9027; format: functional
[3] = target: Peptide deformylase (Escherichia coli) (UniProt P0A6K3); assay: In vitro inhibitory concentration required against peptide deformylase (PDF)
Peptide deformylase (Escherichia coli), sequence (P0A6K3 whole entry, looked up): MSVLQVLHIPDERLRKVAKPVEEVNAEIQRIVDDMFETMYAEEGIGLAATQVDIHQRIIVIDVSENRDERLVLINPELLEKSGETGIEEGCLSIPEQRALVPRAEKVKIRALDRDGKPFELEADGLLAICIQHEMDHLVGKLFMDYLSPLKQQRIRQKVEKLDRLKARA

[4] = test system: Staphylococcus aureus; assay: In vitro minimum inhibitory concentration required against Staphylococcus aureus ATCC 10390; format: functional

## CCCCN1/C(=C/C(=O)NO)Sc2ccccc21
[1]
  MIC: > 100 µg/mL
[2]
  MIC: 100 µg/mL (≈ 378 µM)

## CCCCN1/C(=C/C(=O)O)Sc2ccccc21
[1]
  MIC: > 100 µg/mL
[3]
  IC50: > 100 µM
[4]
  MIC: > 100 µg/mL
[2]
  MIC: > 100 µg/mL

## CCCCC[C@H](CC(=O)NO)C(=O)N[C@H](C(=O)N1CCC[C@H]1CO)C(C)C [ACTINONIN]
[1]
  MIC: 50 µg/mL (≈ 130 µM)
[4]
  MIC: 3 µg/mL (≈ 7.78 µM)
[2]
  MIC: 100 µg/mL (≈ 259 µM)

## CCCCCN1/C(=C/C(=O)NO)Sc2ccccc21
[1]
  MIC: > 100 µg/mL
[3]
  IC50: 9.91 µM
[4]
  MIC: 100 µg/mL (≈ 359 µM)
[2]
  MIC: 100 µg/mL (≈ 359 µM)

## CCCCN1/C(=C/C(=O)NO)S(=O)(=O)c2ccccc21
[1]
  MIC: > 100 µg/mL
[3]
  IC50: > 100 µM
[4]
  MIC: > 100 µg/mL
[2]
  MIC: > 100 µg/mL

## CCCN1/C(=C/C(=O)NO)Sc2ccccc21
[1]
  MIC: > 100 µg/mL
[3]
  IC50: 8.39 µM
[4]
  MIC: 10 µg/mL (≈ 39.9 µM)
[2]
  MIC: 100 µg/mL (≈ 399 µM)

## CCN1/C(=C/C(=O)NO)Sc2ccccc21
[1]
  MIC: > 100 µg/mL
[3]
  IC50: > 100 µM
[4]
  MIC: > 100 µg/mL
[2]
  MIC: > 100 µg/mL
